Measured values as given in patent US20260232749A1, “Plant-Based Compositions And Methods For Modulation of Inflammatory Response Post Viral Infection” (VDF Futureceuticals, Inc., priority 2023, published 2026).
Entries after “also recorded” stand apart in the source; their conditions may differ.

Columns and labels:
[1] = tested on: TNF-α induced H2O2 formation; assay: inflammatory resistance assay: ex vivo TNF-α induced extracellular H2O2 generation by blood cells; assay type: in vivo, human; conditions: single oral dose 50 mg blend or 1,000 mg vitamin C
[2] = target: iNOS (Homo sapiens, UniProt P35228); assay: eCMA-iNOS: iNOS-dependent ROS generation in capillary blood (ESR) after single oral dose; assay type: in vivo; conditions: over three hours after single oral dose (50 mg blend or 1,000 mg vitamin C); FIG. 2
[3] = target: T1, NOX2 (Homo sapiens, UniProt P04839); assay: eCMA-PHAGO-NOX2: NOX2-dependent ROS generation in capillary blood (ESR) after single oral dose; assay type: in vivo; conditions: single oral dose (50 mg blend or 1,000 mg vitamin C); subjects 18-24 days after moderate COVID-19; 30-180 min after administration
T1 sequence (P04839 2-570 limits assumed): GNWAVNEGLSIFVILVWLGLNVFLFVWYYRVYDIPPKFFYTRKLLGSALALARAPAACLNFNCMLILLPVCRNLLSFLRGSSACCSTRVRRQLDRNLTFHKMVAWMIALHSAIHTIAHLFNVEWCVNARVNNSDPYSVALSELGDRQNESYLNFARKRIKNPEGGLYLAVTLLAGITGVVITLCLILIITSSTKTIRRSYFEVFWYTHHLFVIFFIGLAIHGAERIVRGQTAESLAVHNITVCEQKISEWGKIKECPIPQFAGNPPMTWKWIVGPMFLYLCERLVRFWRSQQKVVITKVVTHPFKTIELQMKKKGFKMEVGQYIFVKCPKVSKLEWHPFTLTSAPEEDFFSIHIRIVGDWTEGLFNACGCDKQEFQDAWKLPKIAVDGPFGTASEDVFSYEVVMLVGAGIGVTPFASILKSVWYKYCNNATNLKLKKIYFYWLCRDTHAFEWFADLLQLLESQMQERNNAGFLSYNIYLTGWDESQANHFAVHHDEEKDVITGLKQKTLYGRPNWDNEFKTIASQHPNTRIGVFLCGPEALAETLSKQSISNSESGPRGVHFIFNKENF
T1 sequence (P13498 2-195 partner limits assumed): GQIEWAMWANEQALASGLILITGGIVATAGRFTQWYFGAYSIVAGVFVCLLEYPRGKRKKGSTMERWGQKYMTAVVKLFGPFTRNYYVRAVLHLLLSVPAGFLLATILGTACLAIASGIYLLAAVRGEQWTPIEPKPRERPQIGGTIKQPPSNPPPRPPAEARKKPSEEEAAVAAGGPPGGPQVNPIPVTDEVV

Question: With `O=C1O[C@H]([C@@H](O)CO)C(O)=C1O` [vitamin C] as the molecule, how does the “suppression of extracellular H2O2 induced by TNF-α, in words” value ([1]; TNF-α 40 ng/ml (comparable to acute viral infection), FIG. 5A) read?
Answer: Its value is “similarly suppress”.

Question: What about the “reduction of high dose TNFα-induced H2O2 formation, in words” value ([1]; TNFα 200 ng/ml ("Cytokine Storm"), FIG. 5B) of the same molecule?
Answer: The value was “equal potential to reduce; also recorded: similar”.

Question: What about the “change in iNOS dependent cellular metabolic activity, in words” value [2] of the same molecule?
Answer: Its value is “no notable effect”.

Question: What about the “inhibition of NOX2-dependent ROS generation” value [3] of the same molecule?
Answer: Its value is 45%.
